Assay results reported in patent US20240307419A1, “CONFORMATIONALLY-CONSTRAINED INHIBITORS OF 3C OR 3C-LIKE PROTEASES” (priority 2021, published 2024).

tested on: CRFK cells; assay: not given; details: cat

Question: How did the CC50 turn out when CC(C)C[C@H](NC(=O)OC1CC2(C1)CN(S(C)(=O)=O)C2)C(=O)N[C@H](C=O)C[C@H]1CCNC1=O [Compound 4b, 2-(Methylsulfonyl)-2-azaspiro[3.3]heptan-6-yl ((S)-4-methyl-1-oxo-1-(((S)-1-oxo-3-((R)-2-oxopyrrolidin-3-yl)propan-2-yl)amino)pentan-2-yl)carbamate] was run?
Answer: > 100 µM

Question: CC(C)C[C@H](NC(=O)OC1CC2(C1)CN(S(C)(=O)=O)C2)C(=O)N[C@@H](C[C@H]1CCNC1=O)C(O)S(=O)(=O)O (stereo partly drawn) [Compound 4c, Sodium (2S)-1-hydroxy-2-((S)-4-methyl-2-((((2-(methylsulfonyl)-2-azaspiro[3.3]heptan-6-yl)oxy)carbonyl)amino)pentanamido)-3-((R)-2-oxopyrrolidin-3-yl)propane-1-sulfonate] was tested. Which CC50 did it give?
Answer: > 100 µM

Question: For CC(C)C[C@H](NC(=O)OC1CC2(CCN(C(=O)OC(C)(C)C)C2)C1)C(=O)N[C@H](C=O)C[C@H]1CCNC1=O (stereo partly drawn) [Compound 5b, Tert-butyl 2-((((S)-4-methyl-1-oxo-1-(((S)-1-oxo-3-((R)-2-oxopyrrolidin-3-yl)propan-2-yl)amino)pentan-2-yl)carbamoyl)oxy)-6-azaspiro[3.4]octane-6-carboxylate], which CC50 is on record?
Answer: > 100 µM

Question: CC(C)C[C@H](NC(=O)OC1CC2(CCN(C(=O)OC(C)(C)C)C2)C1)C(=O)N[C@@H](C[C@H]1CCNC1=O)C(O)S(=O)(=O)O (stereo partly drawn) [Compound 5c, Sodium (2S)-2-((S)-2-((((6-(tert-butoxycarbonyl)-6-azaspiro[3.4]octan-2-yl)oxy)carbonyl)amino)-4-methylpentanamido)-1-hydroxy-3-((R)-2-oxopyrrolidin-3-yl)propane-1-sulfonate] was tested. Which CC50 did it give?
Answer: > 100 µM

Question: With CC(C)C[C@H](NC(=O)OC1CCC2(C1)CN(C(=O)OC(C)(C)C)C2)C(=O)N[C@H](C=O)C[C@H]1CCNC1=O (stereo partly drawn) [Compound 6b, Tert-butyl 6-((((S)-4-methyl-1-oxo-1-(((S)-1-oxo-3-((R)-2-oxopyrrolidin-3-yl)propan-2-yl)amino)pentan-2-yl)carbamoyl)oxy)-2-azaspiro[3.4]octane-2-carboxylate] as the compound, how does the CC50 read?
Answer: > 100 µM

Question: For CC(C)C[C@H](NC(=O)OC1CCC2(C1)CN(C(=O)OC(C)(C)C)C2)C(=O)N[C@@H](C[C@H]1CCNC1=O)C(O)S(=O)(=O)O (stereo partly drawn) [Compound 6c, Sodium (2S)-2-((2S)-2-((((2-(tert-butoxycarbonyl)-2-azaspiro[3.4]octan-6-yl)oxy)carbonyl)amino)-4-methylpentanamido)-1-hydroxy-3-((R)-2-oxopyrrolidin-3-yl)propane-1-sulfonate], which CC50 is on record?
Answer: > 100 µM

Question: How did the CC50 turn out when CC(C)C[C@H](NC(=O)OC1CC2(CCN(C(=O)C(C)C)CC2)C1)C(=O)N[C@H](C=O)C[C@H]1CCNC1=O [Compound 8b, 7-Isobutyryl-7-azaspiro[3.5]nonan-2-yl ((S)-4-methyl-1-oxo-1-(((S)-1-oxo-3-((R)-2-oxopyrrolidin-3-yl)propan-2-yl)amino)pentan-2-yl)carbamate] was run?
Answer: > 100 µM

Question: How did the CC50 turn out when CC(C)C[C@H](NC(=O)OC1CC2(CCN(C(=O)C(C)C)CC2)C1)C(=O)N[C@@H](C[C@H]1CCNC1=O)C(O)S(=O)(=O)O (stereo partly drawn) [Compound 8c, Sodium (2S)-1-hydroxy-2-((S)-2-((((7-isobutyryl-7-azaspiro[3.5]nonan-2-yl)oxy)carbonyl)amino)-4-methylpentanamido)-3-((R)-2-oxopyrrolidin-3-yl)propane-1-sulfonate] was run?
Answer: > 100 µM

Question: How did the CC50 turn out when CC(C)C[C@H](NC(=O)OC1CC2(CCN(C#N)CC2)C1)C(=O)N[C@H](C=O)C[C@H]1CCNC1=O [Compound 11b, 7-Cyano-7-azaspiro[3.5]nonan-2-yl ((S)-4-methyl-1-oxo-1-(((S)-1-oxo-3-((R)-2-oxopyrrolidin-3-yl)propan-2-yl)amino)pentan-2-yl)carbamate] was run?
Answer: > 100 µM

Question: How did the CC50 turn out when CC(C)C[C@H](NC(=O)OC1CC2(CCN(C#N)CC2)C1)C(=O)N[C@@H](C[C@H]1CCNC1=O)C(O)S(=O)(=O)O (stereo partly drawn) [Compound 11c, Sodium (2S)-2-((S)-2-((((7-cyano-7-azaspiro[3.5]nonan-2-yl)oxy)carbonyl)amino)-4-methylpentanamido)-1-hydroxy-3-((R)-2-oxopyrrolidin-3-yl)propane-1-sulfonate] was run?
Answer: > 100 µM

Question: Which CC50 does the source give for CC(C)C[C@H](NC(=O)OC1CN(C(=O)OC(C)(C)C)C1)C(=O)N[C@H](C=O)C[C@H]1CCNC1=O [Compound 12b, Tert-butyl 3-((((S)-4-methyl-1-oxo-1-(((S)-1-oxo-3-((R)-2-oxopyrrolidin-3-yl)propan-2-yl)amino)pentan-2-yl)carbamoyl)oxy)azetidine-1-carboxylate] here?
Answer: > 100 µM

Question: Which CC50 does the source give for CC(C)C[C@H](NC(=O)OC1CN(C(=O)OC(C)(C)C)C1)C(=O)N[C@@H](C[C@H]1CCNC1=O)C(O)S(=O)(=O)O (stereo partly drawn) [Compound 12c, Sodium (2S)-2-((S)-2-((((1-(tert-butoxycarbonyl)azetidin-3-yl)oxy)carbonyl)amino)-4-methylpentanamido)-1-hydroxy-3-((R)-2-oxopyrrolidin-3-yl)propane-1-sulfonate] here?
Answer: > 100 µM

Question: CC(C)C[C@H](NC(=O)OC1(C)CN(C(=O)OC(C)(C)C)C1)C(=O)N[C@H](C=O)C[C@H]1CCNC1=O [Compound 13b, Tert-butyl 3-methyl-3-((((S)-4-methyl-1-oxo-1-(((S)-1-oxo-3-((R)-2-oxopyrrolidin-3-yl)propan-2-yl)amino)pentan-2-yl)carbamoyl)oxy)azetidine-1-carboxylate] was tested. Which CC50 did it give?
Answer: > 100 µM

Question: For CC(C)C[C@H](NC(=O)OC1(C)CN(C(=O)OC(C)(C)C)C1)C(=O)N[C@@H](C[C@H]1CCNC1=O)C(O)S(=O)(=O)O (stereo partly drawn) [Compound 13c, Sodium (2S)-2-((S)-2-((((1-(tert-butoxycarbonyl)-3-methylazetidin-3-yl)oxy)carbonyl)amino)-4-methylpentanamido)-1-hydroxy-3-((R)-2-oxopyrrolidin-3-yl)propane-1-sulfonate], which CC50 is on record?
Answer: > 100 µM

Question: How did the CC50 turn out when CC(C)C[C@H](NC(=O)OCC1CN(C(=O)Cc2ccccc2)C1)C(=O)N[C@H](C=O)C[C@H]1CCNC1=O [Compound 15b, (1-(2-Phenylacetyl)azetidin-3-yl)methyl ((S)-4-methyl-1-oxo-1-(((S)-1-oxo-3-((R)-2-oxopyrrolidin-3-yl)propan-2-yl)amino)pentan-2-yl)carbamate] was run?
Answer: > 100 µM

Question: For CC(C)C[C@H](NC(=O)OCC1CN(C(=O)Cc2ccccc2)C1)C(=O)N[C@@H](C[C@H]1CCNC1=O)C(O)S(=O)(=O)O (stereo partly drawn) [Compound 15c, Sodium (2S)-1-hydroxy-2-((S)-4-methyl-2-((((1-(2-phenylacetyl)azetidin-3-yl)methoxy)carbonyl)amino)pentanamido)-3-((R)-2-oxopyrrolidin-3-yl)propane-1-sulfonate], which CC50 is on record?
Answer: > 100 µM

Question: CC(C)C[C@H](NC(=O)OCC1CN(C(=O)C2CC3CCC2C3)C1)C(=O)N[C@H](C=O)C[C@H]1CCNC1=O (stereo partly drawn) [Compound 16b, (1-(Bicyclo[2.2.1]heptane-2-carbonyl)azetidin-3-yl)methyl ((S)-4-methyl-1-oxo-1-(((S)-1-oxo-3-((R)-2-oxopyrrolidin-3-yl)propan-2-yl)amino)pentan-2-yl)carbamate] was tested. Which CC50 did it give?
Answer: > 100 µM

target: SARS-CoV-2 3CLpro (Severe acute respiratory syndrome coronavirus 2 (2019-nCoV) (SARS-CoV-2), UniProt P0DTD1); assay: biochemical; assay type: biochemical; details: read-out: IC50

Question: How did the IC50 turn out when CCCCCC12CCC(COC(=O)N[C@@H](CC(C)C)C(=O)N[C@H](C=O)C[C@@H]3CCNC3=O)(CC1)CC2 [Compound 2i, (4-Pentylbicyclo[2.2.2]octan-1-yl)methyl ((S)-4-methyl-1-oxo-1-(((S)-1-oxo-3-((S)-2-oxopyrrolidin-3-yl)propan-2-yl)amino)pentan-2-yl)carbamate] was run?
Answer: 0.27 ± 0.02 µM

Question: Which IC50 does the source give for CC(C)C[C@H](NC(=O)OCC12CC3CC(CC(C3)C1)C2)C(=O)N[C@H](C=O)C[C@H]1CCNC1=O [Compound 2l, ((3S,5S,7S)-Adamantan-1-yl)methyl-d2 ((S)-4-methyl-1-oxo-1-(((S)-1-oxo-3-((S)-2-oxopyrrolidin-3-yl)propan-2-yl)amino)pentan-2-yl)carbamate] here?
Answer: 0.29 ± 0.04 µM

Question: With CC(C)C[C@H](NC(=O)OC[C@@]12C[C@@H]3C[C@@H](C[C@@](O)(C3)C1)C2)C(=O)N[C@H](C=O)C[C@@H]1CCNC1=O [Compound 2o, ((1r,3R,5R,7S)-3-Hydroxyadamantan-1-yl)methyl-d2 ((S)-4-methyl-1-oxo-1-(((S)-1-oxo-3-((S)-2-oxopyrrolidin-3-yl)propan-2-yl)amino)pentan-2-yl)carbamate] as the compound, how does the IC50 read?
Answer: 0.74 ± 0.26 µM

Question: For CCCCCC12CCC(COC(=O)N[C@@H](CC(C)C)C(=O)N[C@@H](C[C@@H]3CCNC3=O)C(O)S(=O)(=O)O)(CC1)CC2 (stereo partly drawn) [Compound 3i, Sodium (2S)-1-hydroxy-2-((S)-4-methyl-2-((((4-pentylbicyclo[2.2.2]octan-1-yl)methoxy)carbonyl)amino)pentanamido)-3-((S)-2-oxopyrrolidin-3-yl)propane-1-sulfonate], which IC50 is on record?
Answer: 0.3 ± 0.02 µM

Question: With [2H]C([2H])(OC(=O)N[C@@H](CC(C)C)C(=O)N[C@@H](C[C@@H]1CCNC1=O)C(O)S(=O)(=O)[O-])C12CCC(CCCCC)(CC1)CC2.[Na+] (stereo partly drawn) [Compound 3j, Sodium (2S)-1-hydroxy-2-((S)-4-methyl-2-((((4-pentylbicyclo[2.2.2]octan-1-yl)methoxy-d2)carbonyl)amino)pentanamido)-3-((S)-2-oxopyrrolidin-3-yl)propane-1-sulfonate] as the compound, how does the IC50 read?
Answer: 0.31 ± 0.06 µM

Question: How did the IC50 turn out when CC(C)C[C@H](NC(=O)OCC12CC3CC(CC(C3)C1)C2)C(=O)N[C@@H](C[C@H]1CCNC1=O)C(O)S(=O)(=O)O (stereo partly drawn) [Compound 3l, Sodium (2S)-2-((S)-2-(((((3S,5S,7S)-adamantan-1-yl)methoxy-d2)carbonyl)amino)-4-methylpentanamido)-1-hydroxy-3-((S)-2-oxopyrrolidin-3-yl)propane-1-sulfonate] was run?
Answer: 0.27 ± 0.04 µM

Question: For CC(C)C[C@H](NC(=O)OCC12CC3CC(CC(O)(C3)C1)C2)C(=O)N[C@@H](C[C@H]1CCNC1=O)C(O)S(=O)(=O)O (stereo partly drawn) [Compound 3o, Sodium (2S)-1-hydroxy-2-((S)-2-(((((1r,3R,5R,7S)-3-hydroxyadamantan-1-yl)methoxy-d2)carbonyl)amino)-4-methylpentanamido)-3-((S)-2-oxopyrrolidin-3-yl)propane-1-sulfonate], which IC50 is on record?
Answer: 0.78 ± 0.18 µM
